Assay: Hydrazine diffusion into vesicles assay (fluorimetric kinetic hydrazine transmembrane diffusion, SUVs encapsulating compound 2)
Conditions: for hydrazine diffusion across a phospholipid membrane, t ½: FIG. 9, membranes of the phosphatidylcholine lipid
Description: (iii) Hydrazine Diffusion into Vesicles Assay
Example 5: Hydrazine Diffusion Assay Procedure
1.0 mg of phosphatidylcholine lipid in chloroform solution was dispensed into a 20 mL scintillation vial, dried under a stream of Ar, and put under house vacuum in a desiccator overnight. The vial was then removed from the desiccator, purged of air with a stream of Ar, closed, and sealed with Parafilm.
6.0 g of monobasic sodium phosphate was dissolved in 1 L MilliQ water to make a 50 mM solution. The pH of the solution was raised to 7.40 by addition of 5N NaOH (typically 9 mL). Depending on the amount of NaOH added, NaCl was added (typically 10 g) to form a 500 mosM buffer.
Loosely capped Falcon tubes containing 45 ml of buffer or MilliQ water were placed in a desiccator and put under house vacuum overnight. The desiccator was then filled with Ar by first capping the inlet with a rubber septum, then piercing the septum with two Ar-filled balloons with attached needles, then simultaneously closing the desiccator valve to vacuum and opening the desiccator valve to the inlet. The desiccator top was then removed and the Falcon tubes quickly closed and sealed with Parafilm.
425-430 mg of hydrazine hydrochloride was weighed and dispensed into a 25 ml reagent bottle pre-filled with Ar; the bottle was then purged of air with a stream of Ar and closed. 25 ml degassed MilliQ water was added to the bottle, along with 300 μl 5N NaOH, under a stream of Ar. The bottle was closed and shaken vigorously. The pH was then adjusted to 7.40±0.02 with 5N NaOH, purging of air with Ar immediately after each pH measurement with a glass electrode. The bottle was purged of air with a stream of Ar, closed, and sealed with Parafilm.
A suspension of Sepharose® CL-4B in 10-30% ethanol (Sigma) was added to an 8.5-cm size-exclusion column. Methanol was washed out of the column by flushing with at least 5 column volumes of 50 mM phosphate buffer (described above, section B). Then the column was capped with a rubber septum, the septum was pierced with an Ar-filled balloon with attached needle, and the column was run until the meniscus descended to the top of the resin. Then, under a stream of Ar, the head space was filled with degassed buffer (described above, section C) and the Falcon tube containing the degassed buffer was purged of any incidental air with a stream of Ar, then closed. […]
The vesicles were loaded onto the column under a stream of Ar and then degassed phosphate buffer was added to the column under a stream of Ar; the column was subsequently run under Ar. […] Vesicles were not visible by eye or upon exposure to a UV lamp; vesicles were detected by directing the beam from a 5 mW green laser pointer horizontally through the cuvette; upon elution of the vesicles, bright scattering was visible.

In the case of CCCCCCCC/C=C\CCCCCCCCCCCC(=O)OC[C@H](COP(=O)([O-])OCC[N+](C)(C)C)OC(=O)CCCCCCCCCCC/C=C\CCCCCCCC [di22:1 PC (DEPC)], the “hydrazine diffusion across a phospholipid membrane, t ½” value is reported as 1.65 ± 0.1 h, the “N2H4 Diff. t1/2 (min) pH = 6.30” value (pH = 6.30, SUVs of the lipid) is reported as 583 ± 25 min and the “N2H4 Diff. t1/2 (min) pH = 7.40” value (pH = 7.40, SUVs of the lipid) is reported as 98.9 ± 6.0 min.
With CCCCCCCC/C=C\CCCCCCCC(=O)OC[C@H](COP(=O)([O-])OCC[N+](C)(C)C)OC(=O)CCCCCCC/C=C\CCCCCCCC [18:1 PC (DOPC)] the “hydrazine diffusion across a phospholipid membrane, t ½” value was 0.907 ± 0.0933 h.

Source: patent publication US10732108B2, “Fluorogenic water soluble hydrazine sensors” (priority 2017, dated 2020)
